Test results published in patent publication US9469650B2, “Melampomagnolide B derivatives” (BOARD OF TRUSTEES OF THE UNIVERSITY OF ARKANSAS, priority 2013, dated 2016).

How the values were obtained:
CCRF-CEM = test: panel of 60 human tumor cell lines, growth inhibition (Leukemia); conditions: Homo sapiens; for CC50: read-out: LC50; for IC (TGI): read-out: TGI
MOLT-4 = test: as above; conditions: Homo sapiens; for GI50: MOLT-4; for CC50: MOLT-4, read-out: LC50; for IC (TGI): MOLT-4, read-out: TGI
SR = test: as above; conditions: Homo sapiens; for CC50: read-out: LC50; for IC (TGI): read-out: TGI
MDA-MB-435 = test: panel of 60 human tumor cell lines, growth inhibition (Melanoma); conditions: Homo sapiens; for GI50: MDA-MB-435; for CC50: MDA-MB-435, read-out: LC50; for IC (TGI): MDA-MB-435, read-out: TGI
SK-MEL-28 = test: as above; conditions: Homo sapiens; for GI50: SK-MEL-28; for CC50: SK-MEL-28, read-out: LC50; for IC (TGI): SK-MEL-28, read-out: TGI
SK-MEL-5 = test: as above; conditions: Homo sapiens; for GI50: SK-MEL-5; for CC50: SK-MEL-5, read-out: LC50; for IC (TGI): SK-MEL-5, read-out: TGI
SF-539 = test: panel of 60 human tumor cell lines, growth inhibition (CNS Cancer); conditions: Homo sapiens; for GI50: SF-539; for CC50: SF-539, read-out: LC50; for IC (TGI): SF-539, read-out: TGI
COLO 205 = test: panel of 60 human tumor cell lines, growth inhibition (Colon Cancer); conditions: Homo sapiens; for GI50: COLO 205; for CC50: COLO 205, read-out: LC50; for IC (TGI): COLO 205, read-out: TGI
KM12 = test: as above
ACHN = test: panel of 60 human tumor cell lines, growth inhibition (Renal Cancer); conditions: Homo sapiens; for CC50: read-out: LC50; for IC (TGI): read-out: TGI
TK-10 = test: as above; conditions: Homo sapiens; for GI50: TK-10, TK-10; for CC50: TK-10, read-out: LC50; for IC (TGI): TK-10, read-out: TGI
HS 578T = test: panel of 60 human tumor cell lines, growth inhibition (Breast Cancer); conditions: Homo sapiens, Hs-578T; for CC50: read-out: LC50; for IC (TGI): read-out: TGI
T-47D = test: as above; conditions: Homo sapiens, T47D; for CC50: read-out: LC50; for IC (TGI): read-out: TGI
MDA-MB-468 = test: as above; conditions: Homo sapiens; for GI50: MDA-MB-468; for CC50: MDA-MB-468, read-out: LC50; for IC (TGI): MDA-MB-468, read-out: TGI
OVCAR-8 = test: panel of 60 human tumor cell lines, growth inhibition (Ovarian Cancer); conditions: Homo sapiens; for GI50: OVCAR-8; for CC50: OVCAR-8, read-out: LC50; for IC (TGI): OVCAR-8, read-out: TGI
NCI/ADR-RES = test: as above; conditions: Homo sapiens; for CC50: read-out: LC50; for IC (TGI): read-out: TGI
NCI-H23 = test: panel of 60 human tumor cell lines, growth inhibition (Non-Small Cell Lung Cancer); conditions: Homo sapiens; for GI50: NCI-H23; for CC50: NCI-H23, read-out: LC50; for IC (TGI): NCI-H23, read-out: TGI
NCI-H460 = test: as above; conditions: Homo sapiens; for GI50: NCI-H460; for CC50: NCI-H460, read-out: LC50; for IC (TGI): NCI-H460, read-out: TGI
HT29 = test: panel of 60 human tumor cell lines, growth inhibition (Colon Cancer); conditions: for Percent Growth: HT29

C=C1C(=O)O[C@H]2[C@H]1CC/C(COC(=O)OCCCN1CCCCC1)=C\CC[C@@]1(C)O[C@@H]21 [JVM 2-26]
GI50 (CCRF-CEM): 1.78 µM | CC50 (CCRF-CEM): 63.5 µM | IC (TGI) (CCRF-CEM): 5.72 µM | GI50 (MOLT-4): 4.07 µM | CC50 (MOLT-4): 98.7 µM | IC (TGI) (MOLT-4): 10.4 µM | GI50 (SR): 2.12 µM | CC50 (SR): 83.9 µM | IC (TGI) (SR): 10.2 µM | GI50 (MDA-MB-435): 2.99 µM | CC50 (MDA-MB-435): 38.5 µM | IC (TGI) (MDA-MB-435): 13.2 µM | GI50 (SK-MEL-28): 3.83 µM | CC50 (SK-MEL-28): 41 µM | IC (TGI) (SK-MEL-28): 15.5 µM | GI50 (SK-MEL-5): 10.6 µM | CC50 (SK-MEL-5): 47.6 µM | IC (TGI) (SK-MEL-5): 22.5 µM | GI50 (SF-539): 2.39 µM | CC50 (SF-539): 32.1 µM | IC (TGI) (SF-539): 8.7 µM | GI50 (COLO 205): 1.7 µM | CC50 (COLO 205): 7.07 µM | IC (TGI) (COLO 205): 3.47 µM | GI50 (KM12; Homo sapiens, KM12): 15.5 µM | CC50 (KM12; Homo sapiens, KM12, read-out: LC50): 63.3 µM | TGI (KM12; KM12): 3.13E−5 | Percent Growth (KM12; KM12, Log10 Concentration −4.0): −83% | Percent Growth (KM12; KM12, Log10 Concentration −5.0): 81% | Percent Growth (KM12; KM12, Log10 Concentration −6.0): 97% | Percent Growth (KM12; KM12, Log10 Concentration −7.0): 94% | Percent Growth (KM12; KM12, Log10 Concentration −8.0): 95% | GI50 (ACHN): 2.14 µM | CC50 (ACHN): 31.5 µM | IC (TGI) (ACHN): 8.06 µM | GI50 (TK-10): 2.03 µM | CC50 (TK-10): 25.5 µM | IC (TGI) (TK-10): 6.82 µM | GI50 (HS 578T): 4.96 µM | CC50 (HS 578T): > 100 µM | IC (TGI) (HS 578T): 26.8 µM | GI50 (T-47D): 2.34 µM | CC50 (T-47D): 45.9 µM | IC (TGI) (T-47D): 8.12 µM | GI50 (MDA-MB-468): 0.601 µM | CC50 (MDA-MB-468): 10.5 µM | IC (TGI) (MDA-MB-468): 2.78 µM | GI50 (OVCAR-8): 10.3 µM | CC50 (OVCAR-8): 53.3 µM | IC (TGI) (OVCAR-8): 13.5 µM | GI50 (NCI/ADR-RES): 17.2 µM | CC50 (NCI/ADR-RES): > 100 µM | IC (TGI) (NCI/ADR-RES): 45.8 µM | GI50 (NCI-H23): 12.8 µM | CC50 (NCI-H23): 67.1 µM | IC (TGI) (NCI-H23): 29.4 µM | GI50 (NCI-H460): 16.7 µM | CC50 (NCI-H460): 77.5 µM | IC (TGI) (NCI-H460): 36 µM

C=C1C(=O)O[C@H]2[C@H]1CC/C(COC(=O)NCCCCCCO)=C\CC[C@@]1(C)O[C@@H]21 [JVM 2-31]
GI50 (CCRF-CEM; NCI five dose): 2.78 µM | CC50 (CCRF-CEM): > 100 µM | IC (TGI) (CCRF-CEM): 10.7 µM | GI50 (MOLT-4): 5.33 µM | CC50 (MOLT-4): > 100 µM | IC (TGI) (MOLT-4): 26.6 µM | GI50 (SR): 2.35 µM | CC50 (SR): > 100 µM | IC (TGI) (SR): 13.3 µM | GI50 (MDA-MB-435): 4.45 µM | CC50 (MDA-MB-435): 70.9 µM | IC (TGI) (MDA-MB-435): 20.2 µM | GI50 (SK-MEL-28): 5.21 µM | CC50 (SK-MEL-28): 43.7 µM | IC (TGI) (SK-MEL-28): 18.1 µM | GI50 (SK-MEL-5): 6.8 µM | CC50 (SK-MEL-5): 54.5 µM | IC (TGI) (SK-MEL-5): 21.7 µM | GI50 (SF-539): 2.42 µM | CC50 (SF-539): 34.8 µM | IC (TGI) (SF-539): 8.33 µM | GI50 (COLO 205): 2.56 µM | CC50 (COLO 205): 32 µM | IC (TGI) (COLO 205): 6.39 µM | Percent Growth (HT29; Log10 Concentration −4.0): −61% | Percent Growth (HT29; Log10 Concentration −5.0): 93% | Percent Growth (HT29; Log10 Concentration −6.0): 102% | Percent Growth (HT29; Log10 Concentration −7.0): 104% | Percent Growth (HT29; Log10 Concentration −8.0): 101% | GI50 (HT29; Homo sapiens, HT-29): 19 µM | CC50 (HT29; Homo sapiens, HT-29, read-out: LC50): 84.8 µM | IC (TGI) (HT29; Homo sapiens, HT-29, read-out: TGI): 40.1 µM | GI50 (ACHN): 3.21 µM | CC50 (ACHN): 49.6 µM | IC (TGI) (ACHN): 13.6 µM | GI50 (TK-10; NCI five dose): 2.64 µM | CC50 (TK-10): 33.3 µM | IC (TGI) (TK-10): 9.68 µM | GI50 (HS 578T): 3.92 µM | CC50 (HS 578T): > 100 µM | IC (TGI) (HS 578T): 85.7 µM | GI50 (T-47D): 2.78 µM | CC50 (T-47D): 87.9 µM | IC (TGI) (T-47D): 10 µM | GI50 (MDA-MB-468): 1.01 µM | CC50 (MDA-MB-468): 35.7 µM | IC (TGI) (MDA-MB-468): 5.23 µM | GI50 (OVCAR-8): 10.2 µM | CC50 (OVCAR-8): 76 µM | IC (TGI) (OVCAR-8): 27.9 µM | GI50 (NCI/ADR-RES): 28.1 µM | CC50 (NCI/ADR-RES): > 100 µM | IC (TGI) (NCI/ADR-RES): > 100 µM | GI50 (NCI-H23): 13.5 µM | CC50 (NCI-H23): 72 µM | IC (TGI) (NCI-H23): 31.1 µM | GI50 (NCI-H460): 20.3 µM | CC50 (NCI-H460): > 100 µM | IC (TGI) (NCI-H460): 51.2 µM
